Several values for one entry are separate records, joined by “and”; a condition that tells them apart may be missing. Equal entries are not always repeated. Where two headings read alike, the source gives them in different places.

One data set in a line: clinical. As to conditions: both, human, in vivo, po. Here is the method:
(§1) To each sample of participant plasma or urine, A. aerogenes sulfatase (2.5 µL; 10–20 units/mL), and E. coli glucuronidase (2.5 µL; ∼5,000–50,000 units/mL) were used to release the analytes from their sulfate and β-D-glucuronic acid esters (Phase II metabolites). For calibration and validation samples, aqueous glycerol (5 µL) was added to mimic the enzymatic hydrolysis. For all analyses, 1% ascorbic acid (10 µL) was added prior to sample work up to limit oxidation. Samples were incubated (37°C) for 20 min and placed on ice to halt enzymatic activity. […] The supernatant was filtered (0.22 µm spinfilter) at 10,000 g for 5 min at 4°C and used for analysis. To optimize peak shape during analysis, the concentration of organic solvent (sample filtrate) was adjusted to a 60:40 ratio with HPLC grade water for TT analysis and a 90:10 ratio with 1% aqueous formic acid for CQA analysis.
(§2) HPLC-MS/MS was performed at the Oregon Health & Science University’s (OHSU) Bioanalytical Shared Resource/Pharmacokinetics Core (Portland, OR, United States). […] Chromatographic separation was achieved using a Poroshell 120 EC18 column (3 mm id × 50 mm; 2.7 µ) and a Poroshell ultra high-performance liquid chromatography (UHPLC) guard column (3.0 mm i.d. Å∼ 5 mm, 2.7 μ) (Agilent, Santa Clara, CA, United States). The injection volume was 20 μL and flow rate was 0.42 mL/min. Gradient elution was performed using a mobile phase of solvent A (water containing 10 mM ammonium acetate and 0.02% ammonium hydroxide; pH 8.5) and solvent B (methanol). […] Chromatographic separation was achieved using a Zorbax Eclipse plus C8 Rapid resolution (4.6 i.d. Å∼ 150 mm, 3.5 μ) column with a Zorbax Eclipse plus C8 Rapid resolution (4.6 i.d. Å∼ 12.5 mm, 5 μ) guard column (Agilent, Santa Clara, CA, United States). The injection volume was 5 μL and flow rate of 0.8 mL/min. Gradient elution was performed using a mobile phase of solvent A (water containing 0.05% v/v acetic acid) and solvent B (acetonitrile with 0.05% v/v acetic acid).
(§3) Briefly, two in-person study visits occurred a minimum of two weeks and a maximum of four weeks apart in which participants orally consumed 2 or 4 g of CAP (in a randomized order) on an empty stomach. Total study duration was eight weeks including follow-up adverse event monitoring. All study procedures were identical for each visit except for the CAP dose administered. Randomization (to prevent tolerance effects) was performed using an arm equivalence design by the OHSU Research Pharmacy. All study personnel were blind to randomization allocation until all data analysis had been finalized. […] Participants fasted for 10 h, excluding water, prior to each study visit and for 2 h after consuming the study intervention to standardize gastrointestinal transit time and minimize food effects. During study visits, participants were provided low-phytochemical snacks and meals by the OCTRI CTRC’s Bionutrition Unit devoid of the foods outlined in Section 2.5. At each study visit, a peripheral intravenous catheter was placed in the arm to allow for repeat blood sampling. Prior to CAP intake, 20 mL of baseline blood and 50 mL of baseline urine were collected. […] Plasma aliquots (2 mL) were frozen and stored at -80°C until analysis. […] A 50 mL aliquot was retained and frozen at −80°C for renal excretion analysis.
(§4) Sample preparation and analysis: Plasma and urine sample preparation and analyte quantification by LC-MS/MS were performed in duplicate for each time point and visit (Sections 2.2–2.4). Due to the possibility of residual interference from the participant’s diet and unique, individual matrix effects, calibration curves were generated for each participant using their baseline plasma collected at the corresponding visit.

For data set [1] the following is noted: cited from earlier work.
The conditions of data set [2]: older adults on cholinesterase inhibitors, ref Wright et al., 2022, cited from earlier work.
For data set [3] the following is noted: cited from earlier work; for Cmax: Songvut et al., 2021.
For data set [4] the following is noted: human, 2 weeks.
Method: (§5) Analytes were mixed with 50 µL of charcoal treated plasma (n = 5) or urine (n = 5) and placed in each of the following storage conditions: 1) long-term storage (two weeks at −80°C); 2) three freeze-thaw cycles during a two-week period stored at −80°C; 3) 4°C for 24 h; and 4) fresh preparation for same day analysis. All samples were processed together for analysis. Calibration curves generated from storage condition 4 samples were used to determine the concentration of analyte present in each storage condition. The percent difference from samples in condition 4 was used to determine stability.
The conditions of data set [5]: in vivo, po. Here is the method:
as §1, §2, §3, §4

The nature of data set [6]: Analyte storage stability in human urine. As to conditions: condition 2 freeze-thaw, high concentration.
Method: as §5
A short description of data set [7]: Analyte storage stability in human plasma. The note with it: condition 2 three freeze-thaw cycles, low concentration.
Method: as §5

`C[C@H]1[C@H](C)CC[C@]2(C(=O)O)CC[C@]3(C)C(=CC[C@@H]4[C@@]5(C)C[C@@H](O)[C@H](O)[C@@](C)(CO)[C@@H]5CC[C@]43C)[C@H]12` [AA, asiatic acid]: the T1/2 in the data set “clinical” is 4.9 (1.3) hr. The Tmax in the data set “clinical” is 2.8 (0.2) hr; in “clinical” (Tmax), 2.2 h; in “clinical” (Tmax, range over both doses), 2.2 to 2.8 h; in data set [1] (in vivo), 4 to 4.5 h; in data set [3] (human, in vivo), 1.5 h. The Cmax is 174 to 372 ng/mL in the data set “clinical” (Cmax, range over both doses); 123 ng/mL in data set [2] (2 g CAP); 259 ng/mL in data set [2] (4 g CAP). The compound also gave a half-life in the data set “clinical” (T1/2) of 4.1 h. In addition, the “Stability, percent of nominal concentration” value in data set [4] is on record as 111%. Besides, the “Total urinary excretion (12 hr)” value in data set [5] was “Not detected”.
As to `C[C@H]1[C@H](C)CC[C@]2(C(=O)O)CC[C@]3(C)C(=CC[C@@H]4[C@@]5(C)C[C@@H](O)[C@H](O)[C@@](C)(CO)[C@@H]5[C@H](O)C[C@]43C)[C@H]12` [MA, madecassic acid], the Cmax was 107 to 197 ng/mL in the data set “clinical”; 210 nM and 107 ng/mL in the data set “clinical” (2 g); 390 nM and 197 ng/mL in the data set “clinical” (4 g); 38 ng/mL in data set [2] (2 g CAP); 63 ng/mL in data set [2] (4 g CAP); 40 ng/mL in data set [3] (ECa 233 250 mg, ref Songvut et al., 2019). In addition, the Cmax in data set [3] (ECa 233 500 mg, ref Songvut et al., 2019) was 52 ng/mL; in data set [3] (read-out: Cmax (molar), ECa 233 250 mg, ref Songvut et al., 2019), 80 nM; in data set [3] (read-out: Cmax (molar), ECa 233 500 mg, ref Songvut et al., 2019) it was 100 nM. The Tmax in the data set “clinical” is 2.2 to 2.8 h; in the data set “clinical” (2 g), 2.4 h; in “clinical” (4 g), 2.7 h; in data set [1] (capsular form, ref Grimaldi et al., 1990, Leng et al., 2013, Wright et al., 2022), 4 to 4.5 h; in data set [3] (encapsulated ECa 233, healthy adults, ref Songvut et al., 2019) it was 1.5 h. Further, the half-life in “clinical” (2 g) is 9.2 h; in “clinical” (4 g), 6.7 h. In addition, the figures for the “Stability, percent of nominal concentration” value in data set [6] and in data set [7] were 80% and 100%, respectively.

Values taken from PMC10481538, “Bioanalytical method validation and application to a phase 1, double-blind, randomized pharmacokinetic trial of a standardized Centella asiatica (L.) Urban water extract product in healthy older adults” (Frontiers in Pharmacology, 2023).
